Test results published in patent publication US20020007060A1, “Reverse hydroxamate inhibitors of matrix metalloproteinases” (priority 1998, published 2002).
Where a name gives a salt, the structure may show the parent alone.

SMILES	melting point [°C]
O=CN(O)C(CS(=O)(=O)c1ccc(-c2ccc(OC(F)(F)F)cc2)cc1)c1ccccn1 (racemic) [Example 186, (±)-N-hydroxy-N-[1-(2-pyridinyl)-2-[[4′-(trifluoromethoxy)[1,1′-biphenyl]-4-yl]sulfonyl]ethyl]formamide]	116.4 to 117.6
N#Cc1ccc(-c2ccc(OCC(c3ccc(F)cc3)N(O)C=O)cc2)cc1 (racemic) [Example 11, (±)-N-[2-[(4′-cyano-[1,1′-biphenyl]-4-yl)oxy]-1-(4-fluorophenyl)ethyl]-N-hydroxyformamide]	194 to 196
COCC(CS(=O)(=O)c1ccc(-c2ccc(C(F)(F)F)cc2)cc1)N(O)C=O (racemic) [Example 126, (±)-N-hydroxy-N-[1-(methoxymethyl)-2-[[4′-(trifluoromethyl)[1,1′-biphenyl]-4-yl]sulfonyl]ethyl]formamide]	175.3 to 176.3
N#Cc1cccc(-c2ccc(OCC(CN3C(=O)CCC3=O)N(O)C=O)cc2)c1 (stereo not drawn) [Example 49, N-[1-[[(3′-cyano[1,1′-biphenyl]-4-yl)oxy]methyl]-2-(2,5-dioxo-1-pyrrolidinyl)ethyl]-N-hydroxyformamide]	128
O=CN(O)C(COCc1ccccc1)CS(=O)(=O)c1ccc(-c2ccc(C(F)(F)F)cc2)cc1 (stereo not drawn) [Example 77, N-[1-[(phenylmethoxy)methyl]-2-[[4′-(trifluoromethyl)[1,1′-biphenyl]-4-yl]sulfonyl]ethyl]-N-hydroxyformamide]	172
CS(=O)(=O)c1ccc(-c2ccc(S(=O)(=O)CC(CO)N(O)C=O)cc2)cc1 (racemic) [Example 148, (±)-N-hydroxy-N-[1-(hydroxymethyl)-2-[[4′-(methylsulfonyl)[1,1′-biphenyl]-4-yl]sulfonyl]ethyl]formamide]	165 to 167
N#Cc1ccc(-c2ccc(OCCN(O)C=O)cc2)cc1 [Example 15, N-[2-[(4′-cyano-[1,1′-biphenyl]-4-yl)oxy]ethyl]-N-hydroxyformamide]	142 to 145
N#Cc1ccc(-c2ccc(OCC(COc3ccccc3)N(O)C=O)cc2)cc1 (racemic) [Example 1, (±)-N-[1-[[(4′-cyano-[1,1′-biphenyl]-4-yl)oxy]methyl]-2-phenoxyethyl]-N-hydroxyformamide]	133 to 135
O=CN(O)C(CS(=O)(=O)c1ccc(-c2ccc(C(F)(F)F)cc2)cc1)c1cccnc1 (racemic) [Example 120, (±)-N-hydroxy-N-[1-(3-pyridinyl)-2-[[4′-(trifluoromethyl)[1,1′-biphenyl]-4-yl]sulfonyl]ethyl]formamide]	186.5 to 188.8
O=CN(O)C(CO)CS(=O)(=O)c1ccc(-c2ccc(Cl)cc2)cc1 (racemic) [Example 152, (±)-N-hydroxy-N-[1-(hydroxymethyl)-2-[(4′chloro[1,1′-biphenyl]-4-yl)sulfonyl]ethyl]formamide]	153 to 154
CC1(C)NC(=O)N(CCC(COc2ccc(-c3ccc(C#N)cc3)cc2)N(O)C=O)C1=O (stereo not drawn) [Example 47, N-[1-[[(4′-cyano[1,1′-biphenyl]-4-yl)oxy]methyl]-3-(4,4-dimethyl-2,5-dioxo-1-imidazolidinyl)propyl]-N-hydroxyformamide]	202 to 204
CC1(C)CC(=O)N(CC(COc2ccc(-c3ccc(C#N)cc3)cc2)N(O)C=O)C(=O)C1 (stereo not drawn) (as salt: potassium) [Example 50, N-[1-[[(4′-cyano[1,1′-biphenyl]-4-yl)oxy]methyl]-2-(4,4-dimethyl-2,6-dioxo-1-piperidinyl)ethyl]-N-hydroxyformamide]	121
CN1C(=O)N(CC(COc2ccc(-c3cccc(C#N)c3)cc2)N(O)C=O)C(=O)C1(C)C (stereo not drawn) [Example 39, N-[1-[[(3′-cyano[1,1′-biphenyl]-4-yl)oxy]methyl]-2-(3,4,4-trimethyl-2,5-dioxo-1-imidazolidinyl)ethyl]-N-hydroxyformamide]	130 to 132
O=CN(O)C(CO)CS(=O)(=O)c1ccc(Oc2ccc(OC(F)(F)F)cc2)cc1 (racemic) [Example 138, (±)-N-hydroxy-N-[1-(hydroxymethyl)-2-[[4-[4-(trifluoromethoxy)phenoxy]phenyl]sulfonyl]ethyl]formamide]	115 to 117
CN1C(=O)N(CC(CS(=O)(=O)c2ccc(Oc3ccc(C(F)(F)F)cc3)cc2)N(O)C=O)C(=O)C1(C)C (racemic) [Example 153, (±)-N-[1-[(2,5-dioxo-3,4,4-trimethyl-1-imidazolidinyl)methyl]-2-[[4-[4-(trifluoromethyl)phenoxy]phenyl]sulfonyl]ethyl]-N-hydroxyformamide]	141 to 143
O=CN(O)C(CS(=O)(=O)c1ccc(-c2ccc(C(F)(F)F)cc2)cc1)c1ccccn1 (racemic) [Example 123, (±)-N-hydroxy-N-[1-(2-pyridinyl)-2-[[4′-(trifluoromethyl) [1,1′-biphenyl]-4-yl]sulfonyl]ethyl]formamide]	168.5 to 168.9
N#Cc1ccc(-c2ccc(OCC(CN3C(=O)c4ccccc4C3=O)N(O)C=O)cc2)cc1 (racemic) [Example 3, (±)-N-[1-[[(4′-cyano-[1,1′-biphenyl]-4-yl)oxy]methyl]-2-(2,3-dihydro-1,3-dioxo-1H-isoindol-2-yl)ethyl]-N-hydroxyformamide]	199 to 202

SMILES	melting point [°C]
CN1C(=O)N(CC(COc2ccc(-c3ccc(S(N)(=O)=O)cc3)cc2)N(O)C=O)C(=O)C1(C)C (stereo not drawn) [Example 114, N-[1-[[[4′-(aminosulfonyl)[1,1′-biphenyl]-4-yl]oxy]methyl]-2-(3,4,4-trimethyl-2,5-dioxo-1-imidazolidinyl)ethyl]-N-hydroxyformamide]	203 to 205
O=CN(O)C(CCCO)CS(=O)(=O)c1ccc(-c2ccc(C(F)(F)F)cc2)cc1 (racemic) [Example 128, (±)-N-hydroxy-N-[4-hydroxy-1-[[[4′-(trifluoromethyl)[1,1′-biphenyl]-4-yl]sulfonyl]methyl]butyl]formamide]	138.9 to 140.3
COCOc1ccc(C(CS(=O)(=O)c2ccc(-c3ccc(C(F)(F)F)cc3)cc2)N(O)C=O)cc1 (racemic) [Example 129, (±)-N-hydroxy-N-[1-[4-(methoxymethoxy)phenyl]-2-[[4′-(trifluoromethyl)[1,1′-biphenyl]-4-yl]sulfonyl]ethyl]formamide]	137.1 to 138.5
CC(CS(=O)(=O)c1ccc(-c2ccc(Cl)cc2)cc1)N(O)C=O (stereo not drawn) [Example 72, N-[1-[[(4′-chloro[1,1′-biphenyl]-4-yl)sulfonyl]methyl]ethyl]-N-hydroxyformamide]	178 to 180
CC(COc1ccc(-c2ccc(C#N)cc2)cc1)N(O)C=O (racemic) [Example 13, (±)-N-[1-[[(4′-cyano-[1,1′-biphenyl]-4-yl)oxy]methyl]ethyl]-N-hydroxyformamide]	141 to 144
CCC(CS(=O)(=O)c1ccc(-c2ccc(OC)cc2)cc1)N(O)C=O (stereo not drawn) [Example 75, N-[1-[[(4′-methoxyl[1,1′-biphenyl]-4-yl)sulfonyl]methyl]propyl]-N-hydroxyformamide]	199 to 200
CC(CS(=O)(=O)c1ccc(-c2ccc3c(c2)OCO3)cc1)N(O)C=O (stereo not drawn) [Example 73, N-[1-[[[4-(1,3-benzodioxol-5-yl)phenyl]sulfonyl]methyl]ethyl]-N-hydroxyformamide]	200 to 201
CC(CS(=O)(=O)c1ccc(-c2ccc(C(F)(F)F)cc2)cc1)N(O)C=O (racemic) [Example 122, (±)-N-hydroxy-N-[1-methyl-2-[[4′-(trifluoromethyl)[1,1′-biphenyl]-4-yl]sulfonyl]ethyl]formamide]	174.6 to 175.2
Cc1ccc(CC(COc2ccc(-c3ccc(C#N)cc3)cc2)N(O)C=O)cc1 (racemic) [Example 10, (±)-N-[1-[[(4′-cyano-[1,1′-biphenyl]-4-yl)oxy]methyl]-2-(4-methylphenyl)ethyl]-N-hydroxyformamide]	173 to 175
CC1(C)NC(=O)N(CC(CS(=O)(=O)c2ccc(-c3ccc(OC(F)(F)F)cc3)cc2)N(O)C=O)C1=O (stereo not drawn) [Example 115, N-[1-[[[4′-(trifluoromethoxy)[1,1′-biphenyl]-4-yl]sulfonyl]methyl]-2-(4,4-dimethyl-2,5-dioxo-1-imidazolidinyl)ethyl]-N-hydroxyformamide]	195 to 197
CCC(C)C(COc1ccc(-c2ccc(C#N)cc2)cc1)N(O)C=O (racemic) [Example 8, (±)-N-[1-[[(4′-cyano-[1,1′-biphenyl]-4-yl)oxy]methyl]-2-methylbutyl]-N-hydroxyformamide]	96 to 98
CSc1ccc(-c2ccc(OCC(CN3C(=O)N(C)C(C)(C)C3=O)N(O)C=O)cc2)cc1 (stereo not drawn) [Example 40, N-[1-[[[4′-(methylthio)[1,1′-biphenyl]-4-yl]oxy]methyl]-2-(3,4,4-trimethyl-2,5-dioxo-1-imidazolidinyl)ethyl]-N-hydroxyformamide]	172 to 174
O=CN(O)C(CS(=O)(=O)c1ccc(-c2ccc(C(F)(F)F)cc2)cc1)c1ccc2c(c1)OCO2 (racemic) [Example 127, (±)-N-[1-(1,3-benzodioxol-5-yl)-2-[[4′-(trifluoromethyl)[1,1′-biphenyl]-4-yl]sulfonyl]ethyl]-N-hydroxyformamide]	159.5 to 160.5
O=CN(O)C(CCO)CS(=O)(=O)c1ccc(-c2ccc(C(F)(F)F)cc2)cc1 (racemic) [Example 125, (±)-N-hydroxy-N-[3-hydroxy-1-[[[4′-(trifluoromethyl)[1,1′-biphenyl]-4-yl]sulfonyl]methyl]propyl]formamide]	186.5 to 188.8
CCCCC(COc1ccc(-c2ccc(C#N)cc2)cc1)N(O)C=O (racemic) [Example 9, (±)-N-[1-[[(4′-cyano-[1,1′-biphenyl]-4-yl)oxy]methyl]pentyl]-N-hydroxyformamide]	105 to 108
CSc1ccc(-c2ccc(S(=O)(=O)CC(CO)N(O)C=O)cc2)cc1 (racemic) [Example 150, (±)-N-hydroxy-N-[1-(hydroxymethyl)-2-[[4′-(methylthio)[1,1′-biphenyl]-4-yl]sulfonyl]ethyl]formamide]	161 to 162
